Source: patent US11008325B2, “Inhibitors of cancer invasion, attachment, and/or metastasis” (VIRGINIA COMMONWEALTH UNIVERSITY, priority 2016, dated 2021)
Where two headings read alike, the source gives them in different places.

Tests used:
human cancer cell lines = conditions: cited from earlier work
mouse xenograft model = conditions: in vivo; cited from earlier work
[1] = target: T1, MDA-9 PDZ12 tandem domain (PDZ1) (Homo sapiens, UniProt O00560); assay: NMR [15N,1H] HSQC chemical shift change and titration binding; conditions: for Binding affinity ranking: chemical shift change (DPPM) of backbone amide of residue 147, 50 μM PDZ12, compound at 1:1 molar ratio
T1 construct: the MDA-9/Syntenin construct used for the screen contains both PDZ domains; made in house
T1 sequence (O00560 110-274): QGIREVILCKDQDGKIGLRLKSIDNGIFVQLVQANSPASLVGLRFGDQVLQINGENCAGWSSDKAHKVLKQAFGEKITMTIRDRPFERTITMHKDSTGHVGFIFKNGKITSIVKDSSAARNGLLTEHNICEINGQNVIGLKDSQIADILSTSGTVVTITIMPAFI
Method: FIGS. 4A-4E. FIG. 4A. […] FIG. 4B. Superposition of 2D [^15N, ^1H]-HSQC spectra of 50 μM MDA-9 PDZ12 tandem domain in the absence and presence of 350 μM 113B7. FIG. 4C. Binding curve and representative spectra for the titration of 113B7 against MDA-9 PDZ12 tandem domain. Top: Zoom of box region in FIG. 4B after titrating 113B7 into Mda9 PDZ, tandem domain. […] Bottom: Titration curve of 113B7 for residue A147. […] FIG. 4D. […] FIG. 4E. Docked structure of 113B7 in complex with MDA-9 PDZ tandem domain (PDB: 1W9E). The pose was obtained with GOLD. Two PDZ domains of MDA-9 are labeled.
NMR based screening of an house assembled fragment library of about 5,000 compounds using [^15N,^1H] […] The proposed docked structure of PDZ1i in the PDZ1 domain and interdomain of MDA-9/Syntenin is shown in FIGS. 4A-4E and FIG. 5, while the chemical structure of PDZ1i is also shown in FIGS. 4A-4E and FIG. 5.
In all binding assays, the MDA-9/Syntenin construct used for the screen contains both PDZ domains. Constructs uniformly labeled with ^15N and ^13C or ^13C-Met selectively labeled are used for binding, mapping and structural studies. These same proteins are used for ITC binding studies.

migration (SAR, Table 4) = type: cell-based
[2] = tested on: Dishevelled PDZ/Fz7 Wnt receptor; conditions: Xenopus embryos; cited from earlier work
[3] = NMR titration following backbone amide of residue 147, read-out: Kd values

| Molecule | Kd [1, 3] [µM] | Binding affinity ranking [1] | further results |
| --- | --- | --- | --- |
| CCCCC(O)C1Nc2cc(C)c(C(=O)O)cc2C1CCc1ccccc1 (stereo not shown) | – | – | apoptosis (human cancer cell lines): Induction of apoptosis in human cancer cell lines; tumor growth (mouse xenograft model): tumor growth inhibition in a mouse xenograft model |
| Cc1cc(=O)n2nc(C(=O)Nc3ccc(O)cc3)nc2[nH]1 [112D11] | 245 | 2 (2 for DPPM 0.02-0.04) | – |
| O=C(Nc1ccc(O)cc1)c1nc2[nH]c3c(c(=O)n2n1)CCC3 [112E12] | 1610 | 1 (1 for DPPM 0.00-0.02) | – |
| O=C(Nc1cc(Cl)c(O)c(Cl)c1)c1nc2[nH]c3c(c(=O)n2n1)CCC3 [112F11] | – | 5 (5 for DPPM 0.08-0.1) | – |
| O=C(Nc1ccc(O)c(Cl)c1)c1nc2[nH]c3c(c(=O)n2n1)CCC3 [112G3] | 119 | – | – |
| Cc1cc(=O)n2nc(C(=O)Nc3cc(Cl)c(N)cc3Cl)nc2[nH]1 [112G4] | 34.3 | 6 (6 for DPPM above 0.1) | Kd ([1]; fragment hits, FIG. 55B, read-out: Kd): ~300 µM |
| Nc1ccc(NC(=O)c2nc3[nH]c4c(c(=O)n3n2)CCC4)cc1 [112G11] | 263 | 2 (2 for DPPM 0.02-0.04) | – |
| Cc1cc(NC(=O)c2nc3[nH]c4c(c(=O)n3n2)CCC4)c(C)cc1NC(=O)Cc1ccc(-c2ccccc2)cc1 [113B9] | – | N.B. | – |
| CC(NC(=O)C(OC(=O)C(C)NC(=O)OC(C)(C)C)C(C)C)C(=O)OC(C(=O)O)C(C)C (stereo not shown) [NSC-668036] | – | – | Wnt3A-induced canonical Wnt signaling [2]: In Xenopus embryos, NSC-668036 inhibits the canonical Wnt signaling induced by Wnt3A (34). |
| Cc1cc(=O)n2nc(NCc3ccccc3)nc2[nH]1 [cmpd1] | – | 2 (2 for DPPM 0.02-0.04) | – |
| O=c1[nH]c2sc3c(c2c2ncnn12)CCCC3 [cmpd6] | – | 1 (1 for DPPM 0.00-0.02) | – |
| Cc1cc(=O)n2nc(C(=O)Nc3ccc4c(c3)OCO4)nc2[nH]1 [cmpd9] | – | 3 (3 for DPPM 0.04-0.06) | – |
| O=c1c2c([nH]c3nc(COc4ccccc4)nn13)CCC2 [cmpd11] | 171 | 5 (5 for DPPM 0.08-0.1) | – |
| O=c1c2c([nH]c3nc(CCc4ccccc4)nn13)CCC2 [cmpd13] | – | 3 (3 for DPPM 0.04-0.06) | – |
| GSKTLQSWRRYH [Fz7 peptide] | – | – | Wnt3A-induced canonical Wnt signaling [2]: peptide attenuates Wnt3A-induced |
| SGKLKLMTTV [Dapper peptide] | – | – | Wnt3A-induced canonical Wnt signaling [2]: peptide attenuates Wnt3A-induced |

Second part, led by results:

| Kd [1, 3] [µM] | Binding affinity ranking [1] | Molecule | further results |
| --- | --- | --- | --- |
| 197 | 4 (4 for DPPM 0.06-0.08) | Cc1cc(=O)n2nc(COc3ccccc3)nc2[nH]1 [30A9] | – |
| 944 | 1 (1 for DPPM 0.00-0.02) | Cc1cc(=O)n2nc(C(=O)Nc3ccc(N)cc3)nc2[nH]1 [112E7] | – |
| – | 1 (1 for DPPM 0.00-0.02) | Cc1cc(O)n2nc(C(=O)Nc3ccc(O)cc3)nc2n1 [112F1] | – |
| – | 4 (4 for DPPM 0.06-0.08) | O=C(Nc1ccc(O)c(Cl)c1)c1nc2[nH]c3c(c(=O)n2n1)CCC3 [112F10] | – |
| 166 | 2 (2 for DPPM 0.02-0.04) | O=C(Nc1ccc(O)c(F)c1)c1nc2[nH]c3c(c(=O)n2n1)CCC3 [112F12] | – |
| 57.3 | 6 (6 for DPPM above 0.1) | Cc1cc(=O)n2nc(C(=O)Nc3cc(Cl)c(O)c(Cl)c3)nc2[nH]1 [112G1] | – |
| 147 | 4 (4 for DPPM 0.06-0.08) | Cc1cc(=O)n2nc(C(=O)Nc3ccc(O)c(F)c3)nc2[nH]1 [112G2] | – |
| 38.3 | 2 (2 for DPPM 0.02-0.04) | Cc1cc(NC(=O)c2nc3[nH]c4c(c(=O)n3n2)CCC4)c(C)cc1NC(=O)CCc1nnc(-c2cccc(C(F)(F)F)c2)o1 [112H9] | % migr. (migration (SAR, Table 4)): 24%; Kd ([1]; estimated by NMR titration in 2D HSQC experiments (Table 4), read-out: Kd): 38 µM |
| 151 | 5 (5 for DPPM 0.08-0.1) | Cc1c(C)c(NC(=O)c2nc3[nH]c4c(c(=O)n3n2)CCC4)c(C)c(C)c1N [113B8] | – |
| – | 3 (3 for DPPM 0.04-0.06) | Cc1cc(NC(=O)c2nc3[nH]c4c(c(=O)n3n2)CCC4)c(C)cc1NC(=O)CCc1nnc(-c2ccsc2)o1 [113B11] | – |
| – | 1 (1 for DPPM 0.00-0.02) | COc1ccc(Br)c(-c2nnc(CCC(=O)Nc3cc(C)c(NC(=O)c4nc5[nH]c6c(c(=O)n5n4)CCC6)cc3C)o2)c1 [113B12] | – |
| – | 3 (3 for DPPM 0.04-0.06) | Cc1cc(=O)n2nc(CCc3ccccc3)nc2[nH]1 [cmpd2] | – |
| – | 1 (1 for DPPM 0.00-0.02) | O=c1c2c([nH]c3nc(NCc4cccs4)nn13)CCC2 [cmpd3] | – |
| – | 4 (4 for DPPM 0.06-0.08) | Cc1cc(=O)n2nc(SCc3ccccc3)nc2[nH]1 [cmpd4] | – |
| – | 2 (2 for DPPM 0.02-0.04) | Cc1[nH]c2nc(C(=O)NCc3ccccc3)nn2c(=O)c1C [cmpd5] | – |
| – | 2 (2 for DPPM 0.02-0.04) | Cc1cc(=O)n2nc(C(=O)Nc3ccc4c(c3)OCCO4)nc2[nH]1 [cmpd7] | – |
| – | 3 (3 for DPPM 0.04-0.06) | COc1cccc(NC(=O)c2nc3[nH]c(C)cc(=O)n3n2)c1 [cmpd8] | – |
| 151 | 4 (4 for DPPM 0.06-0.08) | Cc1cc(=O)n2nc(C(=O)Nc3cccc(Cl)c3)nc2[nH]1 [cmpd10] | – |
| – | 1 (1 for DPPM 0.00-0.02) | CCCc1cc(=O)n2nc(COc3ccccc3)nc2[nH]1 [cmpd14] | – |
